Source: ChEMBL document CHEMBL3507680, “University of Dundee, Gates Library screen for HepG2 cell viability”

Test: Human HepG2 cell viability assay in 384 well format
Type: toxicity, cell-based
Parameters: dose 125 nL, time 70.5 hour; cytotoxicity at 70.5 h: concentration not given beside the values
Details: HepG2 cells, read-out: Inhibition

| SMILES | cytotoxicity at 70.5 h |
| --- | --- |
| Cc1noc(C)c1-c1ccc(C2CCCN2CCC(N)=O)nc1 (centres undefined) | -3.28% |
| N[C@@H]1CCC[C@@H](Oc2ccc(F)cc2Oc2ccccc2)[C@@H]1O | 20.8% |
| C[C@]12CCCCN(C(=O)c3ccccn3)[C@H]1CCCC(=O)N2 | 5.15% |
| Cc1ccnn1CCC(=O)N1C[C@@H](O)[C@H](Oc2cccc(F)c2)C1 | -2.79% |
| Cc1sc2c(C3CCCN(C(C)C)C3)nc(C)n2c1C (centres undefined) | -3.36% |
| CN1CCCC(c2ccnc(C(=O)NC3CC3)c2)C1 (centres undefined) | -3.68% |
| CCCn1ccnc1CN1CCCC1c1cccc(-n2ccnc2)n1 (centres undefined) | 11% |
| Cc1ccc(Oc2cc(F)ccc2O[C@@H]2CCC[C@@H](N)[C@H]2O)cc1 | 16% |
| O=S(=O)(c1ccccc1F)N1CCCC(c2nccs2)C1 (centres undefined) | -1.24% |
| N[C@@H]1CCC[C@@H](Oc2ccc(F)cc2Oc2cccc(F)c2)[C@@H]1O | -1.82% |
| Cc1nc(C)c(C(=O)N2CCCC2c2nc(O)cc(C(C)C)n2)s1 (centres undefined) | -6.05% |
| O=C(N[C@@H]1CCC[C@@H](N2CCCC2)[C@@H]1O)c1cc2ccccc2[nH]1 | -8.28% |
| O=C(N[C@@H]1CCC[C@@H](N2CCOCC2)[C@@H]1O)c1cc2ccccc2[nH]1 | -5.17% |
| Cc1ncc(CN2CCOC(c3ccc(-c4cc[nH]n4)cn3)C2)s1 (centres undefined) | -2.9% |
| O=C(NCCO)C1CN(c2cncnc2)CCO1 (centres undefined) | -8.3% |
| Cc1cccc(C(=O)N2CCCC[C@]3(C)NC(=O)CCC[C@H]23)n1 | -8.97% |
| Cc1ncc(CN2C[C@H]3C[C@H](OCc4ccccc4)C[C@H]3C2)cn1 | -6.93% |
| Cc1cccc(CC2CCCN(C(=O)C3CCOCC3)C2)n1 (centres undefined) | -8.54% |
| COc1cccc(CC(=O)N2CCCC2c2nc(C)c(F)c(O)n2)c1 (centres undefined) | -1.47% |
| Cn1ccnc1C(=O)N1CCOC(Cc2ccc(Cl)cc2)C1 (centres undefined) | -8.65% |
| Cc1cc(C(N)=O)nc(C2(C)CCCN2Cc2cnn(C)c2C)n1 (centres undefined) | -0.0176% |
| CN1CCN(C(=O)C2CCN(c3cccnn3)CC2)CC1 | -5.88% |
| Cc1cc(C)nc(C2CCN(C(=O)c3cnco3)C2)n1 (centres undefined) | -6.7% |
| CCCC(=O)N1CCCCC1c1nccc(C)n1 (centres undefined) | 8.32% |

| SMILES | cytotoxicity at 70.5 h |
| --- | --- |
| Cc1nc(Nc2nnc(C)s2)cc(C2CCCN2C(C)C)n1 (centres undefined) | 5.99% |
| CC(=O)N1CCCC1c1cc(Nc2nnc(C)s2)nc(C)n1 (centres undefined) | 17.2% |
| CN1CCC(c2cncc(-c3cccc(Cl)c3)n2)CC1 | -2.71% |
| CCc1nnc(Nc2cccc(C3CCN(S(=O)(=O)N(C)C)CC3)n2)s1 | -6.79% |
| CC(=O)N1CCCC(c2ccnc(N(C)C)n2)C1 (centres undefined) | -12.5% |
| Cc1nc(Nc2ncccn2)cc(C2CCCN2C)n1 (centres undefined) | -7.58% |
| Cc1nc(Nc2nnc(C)s2)cc(C2CCCN2c2ccncc2)n1 (centres undefined) | -5.11% |
| NC(=O)CN1CCCCC1c1nc(N)ncc1-c1cccc(F)c1 (centres undefined) | -4.69% |
| CC(C#N)CN(C)C(=O)CCNC(=O)OC(C)(C)C (centres undefined) | -6.35% |
| CC(C#N)CN(C)C(=O)CCNC(=O)OCC(F)(F)F (centres undefined) | -0.113% |
| CN1CCOC(CNCc2cnc(C(C)(C)C)s2)C1 (centres undefined) | 0.446% |
| Cc1nc(CN2CCOC3(CCCC3)C2)no1 | -5.91% |
| C1CC(CN2CCCCC2C2OCCO2)C1 (centres undefined) | 3.56% |
| CC(C)C(NCc1ccc(Cn2cncn2)cc1)c1ccc(F)cn1 (centres undefined) | -0.795% |
| C(=C\c1ccccc1)/CNCC1CCc2nncn2C1 (centres undefined) | 5.32% |
| Cc1cc(NC(=O)CN2CCOC(CN(C)C)C2)n(C)n1 (centres undefined) | 17.6% |
| CN1CCN(C)C(CNC(=O)N(C)Cc2ccccc2Cl)C1 (centres undefined) | -0.256% |
| CN1CCN(S(=O)(=O)c2ccc(Sc3nccn3C)nc2)CC1 | 21.6% |
| O=C(CCOCc1ccccc1)NS(=O)(=O)N1CCOc2ccccc21 | 11% |
| O=C(CCc1ccco1)NS(=O)(=O)N1CCOc2ccccc21 | -1.31% |
| CC(O)CN(C(=O)NC1CC1)C(C)C (centres undefined) | 29.8% |
| CS(=O)(=O)CCn1ccc(NC(=O)Cc2ccccc2F)n1 | 3.54% |
| Cn1ccc(NC(=O)Cc2ccccc2F)n1 | 19.9% |
| CC(C)N(CC(C)(C)O)C(=O)NC1CC1 | 20.8% |

| SMILES | cytotoxicity at 70.5 h |
| --- | --- |
| CCN(CC)S(=O)(=O)NCC(O)c1c(Cl)cccc1Cl (centres undefined) | 8.36% |
| CC(O)CN(C(=O)NC1CCN(CC2CCCCC2)CC1)C(C)C (centres undefined) | 1.48% |
| Cn1c(NCc2ccc(C(N)=O)cc2)nc2cc(Cl)ccc21 | 18.9% |
| CCOC(C)c1nccn1CC(=O)Nc1cc(C)on1 (centres undefined) | -0.0484% |
| CCc1nc(NS(=O)(=O)c2cccc(F)c2C)no1 | 7% |
| CS(=O)(=O)CCn1ccc(NC(=O)c2c(F)cccc2F)n1 | -12.1% |
| O=S(=O)(N1CCCCC1)N1CCCN(CC2CCCO2)CC1 (centres undefined) | 1.43% |
| Cn1cc(CNC2CCCOc3c(Cl)cccc32)cn1 (centres undefined) | 3.49% |
| O=S(=O)(N1CCCC1)N1CCN(CC2CCCO2)CC1 (centres undefined) | -3.59% |
| CC(C)(C)c1cc(NC(=O)CNC2CCc3ncnn3C2)on1 (centres undefined) | -11.9% |
| CCOC(C)c1nccn1Cc1noc(CC)n1 (centres undefined) | 16.7% |
| O=C(CSCc1ccccn1)NCC1CCN(C2CC2)C1 (centres undefined) | 0.243% |
| CCCn1ccnc1SCC(=O)NC(Cc1ccccc1)C(C)=O (centres undefined) | 1.89% |
| Cc1cc(N(Cc2cccs2)C2CC2)n2nc(C(F)(F)F)nc2n1 | -1.76% |
| CC(C)c1noc(CNc2ccccc2CC(=O)N(C)C)n1 | -2.98% |
| Cc1ccc(NCc2ccc(C#N)cc2)cc1-n1cnnn1 | 10.5% |
| CC(C)(C)c1nc(CN2CCC(N3CCCCC3)CC2)no1 | -2.12% |
| Cc1[nH]ncc1CCCNC(=O)N1CCC(CC(N)=O)CC1 | -0.905% |
| Fc1cccc2c1CCC2NCc1ccc(N2CCOCC2)cc1 (centres undefined) | 1.27% |
| CN1CCN(C2CCN(Cc3noc(C(C)(C)C)n3)CC2)C1=O | 9.12% |
| CN1CCN(C2CCN(Cc3noc(-c4ccccc4)n3)CC2)C1=O | -3.63% |
| CC(C)(C)c1n[nH]c(C2CN(CCNC3CCCCC3)CCO2)n1 (centres undefined) | -1.09% |
| CC(C)(C)c1n[nH]c(C2CN(CC3CCC3)CCO2)n1 (centres undefined) | -0.868% |
| CN(C)C(=O)Cc1ccccc1NCc1noc(-c2ccccc2)n1 | 2.37% |

| SMILES | cytotoxicity at 70.5 h |
| --- | --- |
| COc1ccc(C(=O)NS(=O)(=O)c2ccc(CNC(C)=O)s2)cc1 | -4.22% |
| Cc1nc(C)c(C(=O)N2CCc3ccc(F)cc3C2C)o1 (centres undefined) | -0.841% |
| O=C(c1cccnc1N1CCCC1)N1CCOC(c2ccccc2)C1 (centres undefined) | -2.27% |
| CCC(O)(CNCc1ccncc1)c1ccc(Br)cc1 (centres undefined) | 1.46% |
| CC(=O)NCc1ccc(S(=O)(=O)NC(=O)c2ccc3c(c2)CCO3)s1 | -2.05% |
| CC(C)(C)c1n[nH]c(C2CN(CCc3ccncc3)CCO2)n1 (centres undefined) | 0.424% |
| Cc1nc(C)c(C(=O)N2Cc3cc(F)ccc3CC2C)o1 (centres undefined) | -3.47% |
| CCOCC(=O)N1CCC(C(O)c2ccc(F)cc2)CC1 (centres undefined) | 2.49% |
| Fc1ccc(CNCc2cc(Br)c3c(c2)OCO3)cc1 | 7.59% |
| FC(F)Oc1ccccc1CNCc1cc(Br)c2c(c1)OCO2 | -7.29% |
| COc1ccccc1CC1CCCN(C(=O)c2cn[nH]c2C)C1 (centres undefined) | -10.8% |
| CC(O)CN(Cc1cccc(C(N)=O)c1)c1ccccc1 (centres undefined) | -7.27% |
| Oc1cccc(CNCC2CCCO2)c1 (centres undefined) | 10.4% |
| Cc1ccc(C(=O)NCCS(=O)(=O)N2CCSCC2)n1C | -2.8% |
| Cc1ccoc1C(=O)NCCS(=O)(=O)N1CCSCC1 | 5.89% |
| CCc1ccc(C(COC)NC(=O)c2ccc(NC(C)=O)cc2)o1 (centres undefined) | -8.16% |
| CCc1ccc(C(COC)NC(=O)c2ccc(C(N)=O)cc2)o1 (centres undefined) | 7.28% |
| COCCC1(CNC(=O)Nc2ccc(-n3ccnn3)cc2)CCC1 | 4.76% |
| CC1(C)CN(C(=O)c2occc2COc2cccc(C#N)c2)CCO1 | 3.19% |
| Cc1nc(CN2CCc3c(nc(C4CC4)n3C)C2)nc2ccccc12 | -5.35% |
| Cc1ccc(CN(Cc2cc(C)no2)C2CC2)cc1 | -3.87% |
| CC(CNC(=O)c1cnccn1)Oc1ccc(F)cc1 (centres undefined) | -8.73% |
| CC(NC(=O)CN1CCN(c2cccc(Cl)c2)CC1)c1ccco1 (centres undefined) | -5.94% |
| N#Cc1csc(CNCCOc2ccc(Cl)cn2)c1 | -5.85% |

| SMILES | cytotoxicity at 70.5 h |
| --- | --- |
| CCCN(Cc1ccccc1O)S(=O)(=O)C(C)CC (centres undefined) | -5.52% |
| COCCSCC(=O)NCc1ccc(N(C)C)cc1 | -0.963% |
| CC(=O)c1cc(C(=O)N2CCN(C)Cc3ccccc32)n(C)c1 | -3% |
| Cc1nc(CN2CCCN(Cc3nc4ccccc4o3)CC2)no1 | -8.61% |
| CC(c1ccc(S(N)(=O)=O)cc1)N(C)C(=O)c1ccccc1I (centres undefined) | -5.97% |
| CCc1ccc(S(=O)(=O)Nc2ccn(CC(=O)OC)n2)cc1 | -4.63% |
| Cc1ccc(N(CC(=O)N2CCCCC2)C(=O)C2CCCO2)cc1 (centres undefined) | -1.14% |
| CC(C)COCCNC(=O)NC1CCCN(c2cnn(C)c2)C1 (centres undefined) | -0.131% |
| O=C(NCCOc1ccc(Cl)cn1)Nc1cccnc1 | -0.774% |
| O=C(NCCOc1ccc(Cl)cn1)Nc1ccccn1 | 0.428% |
| O=C(c1cnc(-c2ccco2)s1)N1CCOc2ncccc21 | -1.16% |
| CCCc1ncc(C(=O)N2CCOc3ncccc32)s1 | -2.81% |
| CN1CCOC(CNCCOc2cccc(C#N)c2)C1 (centres undefined) | -7.36% |
| CC(C)(C)OCCN1CCCC1c1nc(Cc2ccc(F)cc2)no1 (centres undefined) | 11.6% |
| Cc1nc2n(n1)CC(NCCc1cccs1)CC2 (centres undefined) | 0.958% |
| Cc1nccn1-c1ccc(C(C)NCCC(C)C)cc1 (centres undefined) | -1.85% |
| CCc1nc(C)c(C(C)N(C)CCc2ccncc2)s1 (centres undefined) | 0.87% |
| O=C(Cc1ccc(F)cc1)NCCNS(=O)(=O)c1ccc(F)c(F)c1 | -1.6% |
| CNCC(=O)N1CC(c2cc(Nc3nc(C)cs3)nc(C)n2)C1 | -12.3% |
| Clc1ccccc1CN1CCc2nc(C3CCCNC3)ncc2C1 (centres undefined) | -7.56% |
| CC(C)C[C@H](N)C(=O)N1CCSc2ccccc2C1 | 0.624% |
| Clc1ccc(C2(CNC3=NCCN3)CC2)cc1 | 10% |
| Fc1ccc(C2(CNC3=NCCN3)CCCC2)cc1 | 3.33% |
